The test system of series [1] is Jurkat cells. The experiment in a line: On chip drug screening assay (ethidium homodimer 1 staining). It counts as cell-based, human. As for the experimental part:
Jurkat E6.1 cells (ATCC® TIB-152™) and MDA-MB-231 cells (ATCC® HTB-26™) were used as models for suspended and adherent cancer cell lines respectively. Jurkat cell line was derived from human acute T cell leukemia, whereas MDA-MB-231 cell line was derived from human metastatic breast adenocarcinoma. On chip drug screening was performed using the PDMS-based microfluidic chip as described above. A 500 μL glass syringe (Hamilton, USA) and polytetrafluoroethylene (PTFE) tubings with appropriate bore (Cole Parmer, USA) was used to connect between the syringe pump (Harvard Apparatus PHD Ultra Syringe Pump, USA) and the microfluidic chip. Fluorinert® FC-40 (Sigma-Aldrich, USA) supplemented with 2% 008-Fluorosurfactant (Ran Biotechnologies, USA) was used as oil phase; relevant cell culture medium, supplemented with 1% (w/v) methyl cellulose (Sigma-Aldrich, USA) was used as aqueous phase. Cells treated with 0.1% dimethyl sulfoxide (DMSO) were used as negative control. […] Next, […], cell-drug mixtures were loaded into the tubing, consecutively segregated by oil phase at withdrawal rate of 200 μL/h by syringe pump. After loading all mixtures, the tubing was inserted into the microfluidic chip, which was back-flushed with oil phase at 500 μL/h by syringe pump. After that, the mixtures were infused at 25 μL/h by syringe pump. Finally, the inlet and outlet tubings were cut and sealed with Vaseline (Vaseline, USA). […] Brightfield and red fluorescence images (Ex. 531/40 nm, Em. 593/40 nm) were taken under 10× magnification (Life Technologies EVOS FL Imaging System, USA). […] For on chip assays, the number of cells was counted in brightfield and red fluorescence images from each well respectively.

Series [2] has as its system Jurkat cells. Description: 384-well microtiter plate drug screening assay (Alamar Blue). It counts as cell-based, human. The following applies: 384-well plate. As for the experimental part:
(§1) Jurkat E6.1 cells (ATCC® TIB-152™) and MDA-MB-231 cells (ATCC® HTB-26™) were used as models for suspended and adherent cancer cell lines respectively. Jurkat cell line was derived from human acute T cell leukemia, whereas MDA-MB-231 cell line was derived from human metastatic breast adenocarcinoma.
(§2) Microtiter plate drug screening assays were carried out on 96-well clear round flat-bottom plates (Corning, USA) or 384-well white square flat-bottom plates (Corning, USA).
(§3) First, 5.0×10^5 or 1.0×10^5 cells were seeded per well for 96-well and 384-well plates respectively. Drugs were diluted with Dulbecco's phosphate-buffered saline (DPBS) (Life Technologies, USA), and subsequently added to achieve final drug concentrations as indicated on the graphs. Afterwards, the plates were transferred to humidified incubator at 37° C. supplemented with 5% CO2 for 16-24 h incubation. Finally, Alamar Blue assay was used to measure cell viability. Fluorescence intensity (Ex. 560 nm, Em. 590 nm) using auto-cutoff was measured from bottom on plate reader (Molecular Devices SpectraMax MS Plate Reader, USA). Cells treated with 0.1% dimethyl sulfoxide (DMSO) were used as negative control, while no cells were added to blank control. All experiments were performed in triplicate for 96-well plates and in quadruplicates for 384-well relates.
(§4) For microliter plate assays, average relative fluorescence signal measured by plate reader from 6 reads of each well was used as raw data point. Cell viability was calculated as follows: […]
(§5) where Sample represented raw data points of each sample well, whereas DMSO control and Blank represented average raw data points of all DMSO control and Blank wells, respectively.

Series [3] deals with MDA-MB-231 cells. Described as above. It counts as cell-based, human. The following applies: 384-well plate. The procedure:
as §1, §2, §3, §4, §5

The subject of series [4] is MDA-MB-231 cells. The experiment in a line: On chip drug screening assay (ethidium homodimer 1 staining). It counts as cell-based, human. The following applies: for IC50: Homo sapiens. As for the experimental part:
as §1
On chip drug screening was performed using the PDMS-based microfluidic chip as described above. A 500 μL glass syringe (Hamilton, USA) and polytetrafluoroethylene (PTFE) tubings with appropriate bore (Cole Parmer, USA) was used to connect between the syringe pump (Harvard Apparatus PHD Ultra Syringe Pump, USA) and the microfluidic chip. Fluorinert® FC-40 (Sigma-Aldrich, USA) supplemented with 2% 008-Fluorosurfactant (Ran Biotechnologies, USA) was used as oil phase; relevant cell culture medium, supplemented with 1% (w/v) methyl cellulose (Sigma-Aldrich, USA) was used as aqueous phase. Cells treated with 0.1% dimethyl sulfoxide (DMSO) were used as negative control.
Briefly, cells at final concentrations of 1-2×10^6 cells per mL were aliquoted in 0.2 mL PCR tubes, then mixed with corresponding drugs and 2 μM ethidium homodimer 1 (Life Technologies, USA) by manual pipetting. Next, […], cell-drug mixtures were loaded into the tubing, consecutively segregated by oil phase at withdrawal rate of 200 μL/h by syringe pump. After loading all mixtures, the tubing was inserted into the microfluidic chip, which was back-flushed with oil phase at 500 μL/h by syringe pump. After that, the mixtures were infused at 25 μL/h by syringe pump. Finally, the inlet and outlet tubings were cut and sealed with Vaseline (Vaseline, USA). The chips were placed in 150 mm cell culture dish (Coming, USA) containing wet paper towels, and transferred to humidified incubator at 37° C. supplemented with 5% CO2 for 16-24 h incubation. Brightfield and red fluorescence images (Ex. 531/40 nm, Em. 593/40 nm) were taken under 10× magnification (Life Technologies EVOS FL Imaging System, USA).
For on chip assays, brightfield and red fluorescence images were initially processed by ImageJ v.1.50i, Cell counting was either performed manually or by Matlab v.R201.5a based on the workflow shown on FIG. 5B. Briefly, cells from brightfield and red fluorescence images were detected separately using a heuristic Hough Transformation model based on threshold implementation on circular diameter and pixel intensity. Next, each recognized cell was dissected into 10×10 pixels matrix for analysis of its pixel intensity. Subsequently, two layers of multi-radii analysis of pixel intensity around the center of each matrix distinguished signal from noise. Afterwards, cells were distinguished from noise based on the brightfield image, whereas cell viability was determined by signal intensity of corresponding red fluorescence image. Finally, positional information (defined by row: x, and column: y) and size (defined by radius: r) of discrete image matrix was used to classify each cell as “live” or “dead”. The total number of cells in each image corresponding to each droplet formation well on chip was summarized as a table in CSV format for calculation of cell viability. […]
For on chip assays, the number of cells was counted in brightfield and red fluorescence images from each well respectively. Cell viability was calculated as follows: […]
where Total cells and Dead cells referred to the total number of cells counted from brightfield and red fluorescence images, respectively. […]

For series [5], the system named is Jurkat cells. Description: 96-well microtiter plate drug screening assay (Alamar Blue). The following applies: 96-well plate. It counts as cell-based, human. The procedure:
as §1, §2, §3, §4, §5
(In general: Alamar Blue is a resazurin reagent that responds to reducing activity.)

For series [6], the system named is MDA-MB-231 cells. The description is as above. It counts as cell-based, human. The following applies: 96-well plate. The procedure:
as §1, §2, §3, §4, §5

The subject of series [7] is cells. The experiment in a line: Time-lapse imaging of cells incubated with viability indicator dye. It counts as cell-based. The following applies: 2 μM, within 48 h post-treatment. The procedure: Thirdly, different cell viability indicator dyes were tested for staining efficiency, indicator reliability and cytotoxicity on chip. Since the sample fluid was premixed before loading to the chip, we tested for different cell viability indicator dyes and variant concentrations to ensure that the indicator dye had no impact on cell viability, at least within the time frame of the drug susceptibility test. Eventually, ethidium homodimer 1 staining was adopted to indicate dead cells. Ethidium homodimer 1 is a cell-impermeable, high affinity nucleic acid stain emitting strong red fluorescence after binding to DNA. It gave strong red fluorescence after cells were treated with drug but not DMSO) (FIG. 12).

The test system of series [8] is cancer cell lines. Description: Carrier fluid and surfactant optimization, cell viability on chip. It counts as cell-based. Conditions: surfactant, all tested concentrations. From the text: Firstly, we optimized the carrier fluid or oil phase to assure cell viability on chip for a minimum of 7 days for cancer cell lines. Commercial oils including Fluorinert® series oils, e.g. fluorocarbon oils, silicone oil, and mineral oil in combination with different surfactants (either mixed with oil phase or aqueous phase) at various concentrations have been tested. Among these, Fluorinert® FC-40 supplemented with 2% 008-Fluorosurfactant by Ran Biotechnologies provided optimal properties in terms of viscosity, volatility and droplet stability. Fluorosurfactant was added to prevent droplets from coalescence and cross-contamination of droplet contents when they touched each other (FIG. 6A). In addition, fluorosurfactant-emulsified droplets prevented fluorescent dye from adsorbing to the hydrophobic PDMS walls of the channel (FIG. 6B) or migrating into the oil phase (FIGS. 6C and 6D), in order to maintain constant drug concentrations in droplets. […] Droplets containing red fluorescent dye were incubated at 37° C. for 15 h, but no trace of fluorescent dye was observed along the PDMS walls as the droplet shrank due to evaporation. […]

Turning to `O=C(CCCCCCC(=O)Nc1ccccc1)NO` [vorinostat], the cell viability plateau entry in series [1] (all doses tested), in series [2] (all doses tested), in series [3], in series [5] (all doses tested) and in series [6] was “above 50%” each time. Half-maximal inhibition in series [4] (IC50) was put at 33.3 µM.
For the compound `COc1cccc2c1C(=O)c1c(O)c3c(c(O)c1C2=O)C[C@@](O)(C(=O)CO)C[C@@H]3O[C@H]1C[C@H](N)[C@@H](O)[C@H](C)O1` [epirubicin], the IC50 – broadly, the concentration that gives 50% inhibition – was 1000 to 2200 nM in series [1] (Homo sapiens, 16-24 h); 1000 to 2200 nM in series [2] (Homo sapiens, 16-24 h); 500 nM in series [3] (Homo sapiens); 5.5 µM in series [4]; 1000 to 2200 nM in series [5] (Homo sapiens, 16-24 h); 600 nM in series [6] (Homo sapiens). Moreover, the “cell viability leveled off” value in series [4] (after reaching IC50) is reported as “approximately 50%”.
Take ethidium homodimer 1: the “effect on cell death and proliferation” value in series [7] was “did not affect cell death and proliferation”.
Triton X-100: the “effect on cell viability” value in series [8] is recorded as “compromised cell viability”.
Take `CCCCCCCCCCCCOS(=O)(=O)[O-].[Na+]` [sodium dodecyl sulfate]: the “effect on cell viability” value in series [8] is “compromised cell viability”.
